{"source": "paper PMC12668304", "about": "“A Triple Threat Against Ovarian Cancer: Os(II)‐Pt(IV)‐Ceritinib Conjugates for Photodynamic Therapy, Chemotherapy, and Immunogenic Cell Death Induction” (Angewandte Chemie (International Ed. in English), 2025)", "key": {"A2780 cells": {"test_system": "A2780 cells", "assay": "(Photo-)cytotoxicity on 2D cell monolayers, resazurin assay", "type": "cell-based, human", "settings": "for IC50: A2780, normoxic, 4 h exposure", "procedure": "(§1) The 2D cytotoxicity and phototoxicity profiles of Os‐Pt‐Cer and controls, were evaluated in a panel of cancerous cell lines, including A2780 (ovarian carcinoma), A549 (non‐small cell lung carcinoma), and MCA205 (murine fibrosarcoma), as well as a non‐cancerous retinal pigment epithelial cell line (RPE‐1). Cells were treated with the compounds (0.003–100 µM) for 4 h, either kept in the dark or irradiated at 670 nm (13.5 J cm^− ^2) (Table S4 and Figure S22) or 740 nm (12.6 J cm^− ^2) and viability was assessed 44 h post‐treatment. To verify robustness, the incubation was extended to 72 h. […]\n(§2) Human ovarian cancer (A2780) cells and mouse fibrosarcoma cells (MCA205) were cultured in RPMI media. Retinal pigment epithelium (RPE -1) cells were cultured in DMEM/F -12 medium. Lung cancer cells (A549) were cultured in F -12K medium. These cell lines were complemented with 10% of fetal bovine serum, 100 U/mL penicillin -streptomycin mixture, and maintained in a humidified atmosphere […]\n(§3) (Photo-)cytotoxicity on 2D cell monolayers\n(§4) The cytotoxicity of the compounds was assessed by measuring cell viability using a resazurin assay.\n(§5) The cells were seeded in triplicates in 96 well plates with a density of 10 4 cells per well in 100 μL of media. After 24 h, the medium was removed, and the cells were treated with increasing concentrations (0.003 → 100 µM) of the compounds diluted in cell media , achieving a total volume of 100 μL/well.\n(§6) The cells were incubated with the compound for 4 h (final incubation time 48 h) or 24 h (final incubation time 72 h). After this time, the media was removed and replaced with 100 μL of fresh medium. For the phototoxicity studies, the cells were exposed to light with an Atlas Photonics LUMOS BIO irradiation system. Each well was constantly irradiated at 670 nm (60 min, 13.50 J·cm-2) or 740 nm (60 min, 12.60 J·cm-2). During the irradiation, the temperature of the plate was maintained at 37 °C. The cells were grown in the incubator for an additional 44 or 48 h, respectively. For the determination of the dark cytotoxicity, the cells were not irradiated and after the medium exchange directly incubated for 44 h.\n(§7) After this time, the medium was replaced with fresh medium containing resazurin (0.2 mg/mL). After […]\n(§8) 4 h of incubation, the conversion of resazurin into resorufin was determined upon excitation at 540 nm and measurement of its emission at 590 nm using a Cytation 5 Imaging Reader from BioTek. The obtained data was analysed with the GraphPad Prism software […]\n(§9) After 24 h of incubation at 37 °C, 5% CO 2, plates were read using a SpectraMaxM2 Microplate Reader ( λexc = 540 nm; λread = 590 nm). Fluorescence data were normalised, and data were fitted using GraphPad Prism Software, and IC 50 was calculated by non - linear regression. Changes in the size and shape of MCTS were monitored every 24 h using Cytation 5 Imaging Reader from BioTek, objective x4.\n(§10) Intracellular distribution by confocal fluorescence microscopy\n(§11) 10^4 cells/well (A2780 cells) were seeded in complete medium (RPMI) in µ -slide 8 well (Ibidi) (100 µl/well) and left for 24 h to attach to the bottom. Then, the culture medium was removed , and 100 µl of solution of the corresponding complexes (5 µM) was added. The complexes were incubated with the cells for 4 hours. Thereafter, the medium was removed and replaced by RPMI without phenol red , and Hoechst and MitoTracker Green were added at a final concentration of 1 µg/mL. They were incubated with the cells for 30 min in the dark at 37 °C. Images were collected in a sequential mode in a Leica TCS SP8 confocal microscope with a 60x oil immers ion objective, a line average of 4, and a format of […]\n(§12) (MTG)→ 500 -550nm, and 488 nm (complexes)→ 680 -730 nm. The confocal pinhole was 1 Airy unit.\n(§13) Images were analysed with LAS X Flim FCS software.\n(§14) Intracellular distribution by ICP -MS"}, "A549 cells": {"test_system": "A549 cells", "assay": "(Photo-)cytotoxicity on 2D cell monolayers, resazurin assay", "type": "cell-based", "settings": "A549, normoxic, dark, 4 h exposure, total 48 h incubation; read-out: IC50 Dark", "procedure": "as §1, §2, §3, §4, §5, §6, §7, §8, §9, §10, §11, §12, §13, §14"}, "RPE‐1 cells": {"test_system": "RPE‐1 cells", "assay": "(Photo-)cytotoxicity on 2D cell monolayers, resazurin assay", "type": "cell-based", "settings": "for IC50: RPE‐1, normoxic, 4 h exposure", "procedure": "as §1, §2, §3, §4, §5, §6, §7, §8, §9, §10, §11, §12, §13, §14"}, "MCA205 cells": {"test_system": "MCA205 cells", "assay": "(Photo-)cytotoxicity on 2D cell monolayers, resazurin assay", "type": "cell-based, mouse", "settings": "MCA205, normoxic, dark, 4 h exposure, total 48 h incubation; read-out: IC50 Dark", "procedure": "as §1, §2, §3, §4, §5, §6, §7, §8, §9, §10, §11, §12, §13, §14"}, "A2780 MCTSs": {"test_system": "A2780 MCTSs", "assay": "(Photo-)cytotoxicity on 3D multicellular tumour spheroids, resazurin assay", "type": "cell-based, human", "settings": "normoxic, dark, one week of incubation, read-out: IC50 Dark", "procedure": "A2780 spheroids (ca. 500 µm in diameter) were treated with increasing concentrations of the compounds and after 24 h of incubation, the medium was replaced with fresh medium, and the cells were either kept in the dark or irradiated for 1 h at 740 nm. Images of the spheroids were taken every 24 h for 3 days.\nAdditionally, the phototoxicity was tested via a fluorometric resazurin assay in A2780 MCTSs (Table 3). […] (Figure S29). […] This can be attributed to the different biological endpoints and time frames of the assays: spheroid diameter was monitored over 72 h, whereas resazurin measurements were performed after 7 days, potentially capturing delayed cytotoxic effects due to differences in drug cellular uptake.\n4 h of incubation, the conversion of resazurin into resorufin was determined upon excitation at 540 nm and measurement of its emission at 590 nm using a Cytation 5 Imaging Reader from BioTek. The obtained data was analysed with the GraphPad Prism software\nMCTS were cultured using ultra-low attachment 96 wells plates from Corning (Fisher Scientific 15329740). A2780 cells were seeded at a density of 1,500 cells per well in 100 μL of RPMI. Within 2-3 days, MCTSs have approximately 500 μm of diameter. The formation as well as integrity and diameter of the MCTSs were monitored by microscopy.\n(Photo-)cytotoxicity on 3D multicellular tumor spheroids (MCTS)\nAfter 2 days of growing at 37 °C in 5% CO2, the medium was removed, and MCTSs were treated by adding 100 μL of the medium in the well with increasing concentrations of compounds (Os-Pt-Cer, Os, Ceritinib, Oxaliplatin, cisplatin, and Ce6 as additional control). For untreated reference MCTSs, only half of the medium was added with fresh medium. After 24 hours, the MCTSs were divided into two identical groups. The first group was strictly kept in the dark. The second group was irradiated at 740 nm for 1 h (12.60 J·cm-2) using a LUMOS-BIO photoreactor (Atlas Photonics). After the irradiation, all groups were incubated additional 7 days. Thereafter, medium was replaced with 100 μL of fresh medium containing resazurin (0.2 mg/mL). After 24 h of incubation at 37 °C, 5% CO 2, plates were read using a SpectraMaxM2 Microplate Reader ( λexc = 540 nm; λread = 590 nm). Fluorescence data were normalised, and data were fitted using GraphPad Prism Software, and IC 50 was calculated by non - linear regression. Changes in the size and shape of MCTS were monitored every 24 h using Cytation 5 Imaging Reader from BioTek, objective x4. […]\nFigure S29. Cell viability graphs after one week of incubation. Studied compounds were incubated for 24 h, thereafter the medium was renovated. For PDT, plates were irradiated at 740 nm for 1h using a LUMOS-BIO photoreactor (Atlas Photonics). For both PDT and regular cytotoxicity, cells were incubated for one week at 37 °C, 5 % CO2. The medium was renovated each two days. Then, the medium was replaced with 100 µL of fresh medium containing 0.2 mg/mL resazurin (Acros Organics). After 24 h of incubation, the fluorescence signal of the resazurin product was recorded (λexc = 540 nm; λem = 590 nm) using a Cytation 5 Cell Imaging Multi-Mode Reader (Biotek - Agilent).\n(1 picture or pasted object on this page, not shown here)"}, "[1]": {"design": "method as in not given", "settings": "standard, acetonitrile; ref not given; cited from earlier work"}, "[2]": {"settings": "dark, total 48 h incubation, read-out: IC50 Dark"}, "[3]": {"settings": "Homo sapiens, 740 nm (60 min, 12.60 J·cm^−2), total 48 h, read-out: IC50 Irrad. 740 nm"}, "[4]": {"settings": "Homo sapiens, dark, total 48 h incubation, read-out: IC50 Dark"}}, "note": "Where two headings read alike, the source gives them in different places.", "data": [{"smiles": "N.N.[Cl][Pt][Cl]", "note": "[Cisplatin]", "values": [{"measurement": "IC50", "setting": "A2780 cells; [2]", "value": "1.92 ± 0.4", "unit": "µM"}, {"measurement": "IC50", "setting": "A549 cells", "value": "1.11 ± 0.33", "unit": "µM"}, {"measurement": "IC50", "setting": "RPE‐1 cells; [2]", "value": "15.2 ± 0.7", "unit": "µM"}, {"measurement": "IC50", "setting": "MCA205 cells", "value": "0.72 ± 0.2", "unit": "µM"}, {"measurement": "IC50", "setting": "A2780 MCTSs", "value": "2 ± 0.4", "unit": "µM"}]}, {"smiles": "C=CC1=C(C)c2cc3[nH]c(cc4nc(cc5[nH]c(cc1n2)c(C)c5CCC(=O)O)C(CCC(=O)O)=C4C)c(C)c3C=C", "note": "[PPIX, Protoporphyrin]", "values": [{"measurement": "PI (IC50 dark/IC50 irradiation 740 nm)", "setting": "A2780 cells; A2780", "value": "≥6"}, {"measurement": "IC50", "setting": "A2780 cells; [3]", "value": "17.3 ± 0.01", "unit": "µM"}, {"measurement": "IC50", "setting": "A2780 cells; [4]", "value": "> 100", "unit": "µM"}, {"measurement": "IC50", "setting": "RPE‐1 cells; [3]", "value": "41.6 ± 0.3", "unit": "µM"}, {"measurement": "IC50", "setting": "RPE‐1 cells; [4]", "value": "> 100", "unit": "µM"}, {"measurement": "PI (IC50 dark/IC50 irradiation 740 nm)", "setting": "RPE‐1 cells; RPE‐1", "value": "≥2"}]}, {"smiles": "[Ru+2].c1ccc(-c2ccccn2)nc1.c1ccc(-c2ccccn2)nc1.c1ccc(-c2ccccn2)nc1", "note": "[Ru(bpy)3, Tris(2,2'-bipyridyl) ruthenium (II)]", "values": [{"measurement": "Quantum yield", "setting": "[1]", "value": 0.077}, {"measurement": "Singlet oxygen quantum yield", "setting": "[1]", "value": 0.77}]}]}
